The text below walks through data of patent US9029092B2, “Solution phase homogeneous assays” (Beckman Coulter, Inc., priority 2009, dated 2015).

For this experiment, the system named is TnI. The experiment in a line: Assays utilizing various SSIA in TnI assay. It is filed as biochemical. The note with it: for Signal/Noise S1/S0: calibrator S1; for Signal/Noise S2/S0: calibrator S2; for Signal/Noise S3/S0: calibrator S3; for Signal/Noise S4/S0: calibrator S4; for Signal/Noise S5/S0: calibrator S5; for Signal/Noise S6/S0: calibrator S6. On the procedure: In a reaction tube, 400 uL of TnI M6 antibody-HRP conjugate at 0.5 ug/mL in buffered aqueous solution at pH. 8.0 (100 mM Tris, 150 mM NaCl, 0.1 mM EDTA, 0.2% Tween-20 and 1% BSA), 400 uL of AK1˜Dex70/31˜Streptavidin (fraction 1) 2:1 SA/Ab at 2 ug/mL Ab also in buffered aqueous solution at pH 8.0, and 400 uL of calibrator standard solution containing the TnI analyte at a known concentration. One tube was prepared for each calibrator concentration. […] Next, 25 uL of each antioxidant as a concentrated solution of 2 mM, 1 mM or 0.5 mM was pipetted into the plate wells using a repeater pipette. The plates were rotated for 10 seconds to mix and incubated between 5 to 33 minutes. Detection was performed with a SpectraMax L injection plate luminometer.

The mark [1] stands for this setting: SSIA final concentration 125 uM.
The mark [2] stands for this setting: SSIA final concentration 250 uM.
[3] abbreviates: SSIA final concentration 500 uM.

Regarding `O=C1O[C@H]([C@@H](O)CO)C(O)=C1O` [Ascorbic Acid], under setting [1], the “Signal/Noise S1/S0” value is given as 1.4, the “Signal/Noise S2/S0” value is reported as 2.7, the “Signal/Noise S3/S0” value is recorded as 8.5 and the “Signal/Noise S4/S0” value is 32.2. Also, under setting [1], the “Signal/Noise S5/S0” value is reported as 228.0 and the “Signal/Noise S6/S0” value turned out to be 2196.3. Under setting [2], the “Signal/Noise S1/S0” value was 1.6, the “Signal/Noise S2/S0” value is recorded as 2.6, the “Signal/Noise S3/S0” value stood at 8.2 and the “Signal/Noise S4/S0” value was 28.7. Under setting [2], the “Signal/Noise S5/S0” value was found to be 188.5 and the “Signal/Noise S6/S0” value is on record as 1511.1. Under setting [3], the “Signal/Noise S1/S0” value was 1.3, the “Signal/Noise S2/S0” value is given as 1.8, the “Signal/Noise S3/S0” value was determined as 5.1 and the “Signal/Noise S4/S0” value is recorded as 15.4. Also, under setting [3], the “Signal/Noise S5/S0” value amounted to 87.5 and the “Signal/Noise S6/S0” value amounted to 562.4.
